According to patent US20250179088A9 (ZYMEWORKS BC INC., priority 2020, published 2025):

Legend:
[1] = tested on: PBMCs; assay: PBMC assay, IL-6 release (HTRF); assay type: cell-based; details: PBMCs from healthy donors, overnight, IL-6 induction by HTRF, average of quadruplicate
Method: Whole peripheral blood was obtained from healthy donors. PBMCs were isolated from peripheral blood by density gradient centrifugation. […] The plasma layer containing PBMCs was poured into a new tube and washed twice. Isolated PBMCs were either used fresh or thawed from previously frozen. 1×10^5 PBMCs were cultured with titrating concentrations of compounds of Formula I overnight followed by assaying for cytokines by homogeneous time resolved fluorescence (HTRF).

[2] = target: T1, TLR8 (Homo sapiens, UniProt Q9NR97); assay: Reporter gene assay, HEK-Blue TLR8 reporter cells (SEAP)
T1 sequence (Q9NR97 27-1041): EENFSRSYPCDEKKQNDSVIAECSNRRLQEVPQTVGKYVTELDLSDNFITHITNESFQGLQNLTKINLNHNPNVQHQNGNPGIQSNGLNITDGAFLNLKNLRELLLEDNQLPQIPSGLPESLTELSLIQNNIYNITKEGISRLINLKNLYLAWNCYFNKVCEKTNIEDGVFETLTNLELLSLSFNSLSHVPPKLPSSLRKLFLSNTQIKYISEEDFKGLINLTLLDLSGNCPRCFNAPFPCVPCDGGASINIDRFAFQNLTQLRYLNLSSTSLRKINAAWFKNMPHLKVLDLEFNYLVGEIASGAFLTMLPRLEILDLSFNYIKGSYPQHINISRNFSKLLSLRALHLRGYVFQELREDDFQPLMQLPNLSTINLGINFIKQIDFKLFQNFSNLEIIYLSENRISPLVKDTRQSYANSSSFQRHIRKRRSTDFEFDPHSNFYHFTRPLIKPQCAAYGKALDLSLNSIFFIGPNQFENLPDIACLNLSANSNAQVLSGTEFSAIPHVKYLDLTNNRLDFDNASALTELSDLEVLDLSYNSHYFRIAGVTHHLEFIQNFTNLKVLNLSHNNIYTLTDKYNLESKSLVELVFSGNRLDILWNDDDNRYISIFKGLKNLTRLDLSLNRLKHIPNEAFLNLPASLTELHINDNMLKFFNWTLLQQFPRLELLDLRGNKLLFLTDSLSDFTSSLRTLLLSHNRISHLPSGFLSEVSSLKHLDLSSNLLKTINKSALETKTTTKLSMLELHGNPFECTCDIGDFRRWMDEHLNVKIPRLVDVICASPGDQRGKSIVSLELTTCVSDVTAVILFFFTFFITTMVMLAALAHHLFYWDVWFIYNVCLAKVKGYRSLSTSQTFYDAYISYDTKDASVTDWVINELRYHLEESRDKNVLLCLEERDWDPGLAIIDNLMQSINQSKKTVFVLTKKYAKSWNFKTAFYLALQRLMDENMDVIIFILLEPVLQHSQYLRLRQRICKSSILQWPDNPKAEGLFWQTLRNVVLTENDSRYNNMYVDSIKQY
Method: (§1) 3×10^4 HEK-Blue™ TLR7 or 3×10^4 TLR8 reporter cells (InvivoGen, San Diego, CA) were treated with titrated (4-fold) amounts of test compound. […] Cells were incubated overnight at 37° C. and 5% CO2, then absorbance (620 and 655 nm) was read on a Synergy™ H1 microplate reader.

[3] = target: T2, TLR7 (Homo sapiens, UniProt Q9NYK1); assay: Reporter gene assay, HEK-Blue TLR7 reporter cells (SEAP)
T2 sequence (Q9NYK1 27-1049): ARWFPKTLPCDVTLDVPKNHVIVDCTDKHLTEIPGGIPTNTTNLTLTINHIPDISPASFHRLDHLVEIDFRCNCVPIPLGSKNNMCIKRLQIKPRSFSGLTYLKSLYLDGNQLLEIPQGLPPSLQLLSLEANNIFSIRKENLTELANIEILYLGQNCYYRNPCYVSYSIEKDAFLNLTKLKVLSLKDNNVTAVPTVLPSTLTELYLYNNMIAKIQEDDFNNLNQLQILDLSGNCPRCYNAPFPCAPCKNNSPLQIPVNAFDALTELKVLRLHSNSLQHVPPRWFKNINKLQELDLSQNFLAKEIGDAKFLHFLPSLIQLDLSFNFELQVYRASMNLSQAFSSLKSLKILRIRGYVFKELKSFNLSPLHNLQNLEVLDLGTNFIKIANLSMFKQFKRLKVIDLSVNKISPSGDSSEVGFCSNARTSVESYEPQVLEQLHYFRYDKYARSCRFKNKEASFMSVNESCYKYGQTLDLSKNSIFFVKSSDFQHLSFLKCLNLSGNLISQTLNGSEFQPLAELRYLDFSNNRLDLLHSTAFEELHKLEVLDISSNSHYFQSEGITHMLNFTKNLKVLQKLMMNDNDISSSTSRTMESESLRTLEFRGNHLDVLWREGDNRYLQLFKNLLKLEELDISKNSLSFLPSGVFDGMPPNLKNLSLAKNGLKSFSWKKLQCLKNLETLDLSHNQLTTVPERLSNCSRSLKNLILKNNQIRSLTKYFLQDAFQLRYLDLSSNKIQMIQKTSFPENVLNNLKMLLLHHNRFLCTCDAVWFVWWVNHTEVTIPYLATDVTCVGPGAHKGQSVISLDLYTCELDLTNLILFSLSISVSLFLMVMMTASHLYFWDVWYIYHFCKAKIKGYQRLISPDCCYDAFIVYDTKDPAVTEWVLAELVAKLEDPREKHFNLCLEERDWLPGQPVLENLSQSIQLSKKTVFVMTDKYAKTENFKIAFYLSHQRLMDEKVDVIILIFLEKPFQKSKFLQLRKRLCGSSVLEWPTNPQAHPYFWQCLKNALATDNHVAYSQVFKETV
Method: as §1

SMILES | EC50 [2] | EC50 [3] | EC50 [1]
CCCCc1nc2c(N)nc3ccsc3c2n1Cc1ccccc1CNCC(C)(C)O [Compound 225, 1-((2-((4-amino-2-butyl-1H-imidazo[4,5-d]thieno[3,2-b]pyridin-1-yl)methyl)benzyl)amino)-2-methylpropan-2-ol] | > 1 µM | > 1 µM | > 1 µM
CCCCc1nc2c(N)nc3ccsc3c2n1Cc1nc(CO)cs1 [Compound 228, (2-((4-amino-2-butyl-1H-imidazo[4,5-d]thieno[3,2-b]pyridin-1-yl)methyl)thiazol-4-yl)methanol] | > 1 µM | 0.22 µM | > 1 µM
CCCCc1nc2c(N)nc3ccsc3c2n1Cc1cccc(Cn2ccnc2)c1 [Compound 229, 1-(3-((1H-imidazol-1-yl)methyl)benzyl)-2-butyl-1H-imidazo[4,5-d]thieno[3,2-b]pyridin-4-amine] | > 1 µM | 0.42 µM | > 1 µM
CCCCc1nc2c(N)nc3ccsc3c2n1Cc1nc(CN2CCN(CCN3CCOCC3)CC2)cs1 [Compound 234, 2-butyl-1-((4-((4-(2-morpholinoethyl)piperazin-1-yl)methyl)thiazol-2-yl)methyl)-1H-imidazo[4,5-d]thieno[3,2-b]pyridin-4-amine] | > 1 µM | 0.27 µM | > 1 µM
CCCCc1nc2c(N)nc3ccsc3c2n1Cc1nc(CNCc2ccc(CO)cc2)cs1 [Compound 237, (4-((((2-((4-amino-2-butyl-1H-imidazo[4,5-d]thieno[3,2-b]pyridin-1-yl)methyl)thiazol-4-yl)methyl)amino)methyl)phenyl)methanol] | > 1 µM | 0.19 µM | 0.5 µM
CCCCc1nc2c(N)nc3ccsc3c2n1Cc1ncc(CNCC(C)(C)O)s1 [Compound 238, 1-(((2-((4-amino-2-butyl-1H-imidazo[4,5-d]thieno[3,2-b]pyridin-1-yl)methyl)thiazol-5-yl)methyl)amino)-2-methylpropan-2-ol] | > 1 µM | 0.42 µM | > 1 µM
CCCCc1nc2c(N)nc3ccsc3c2n1Cc1nc(CN2CCNCC2)cs1 [Compound 242, 2-butyl-1-((4-(piperazin-1-ylmethyl)thiazol-2-yl)methyl)-1H-imidazo[4,5-d]thieno[3,2-b]pyridin-4-amine] | > 1 µM | 0.15 µM | > 1 µM

Further lines, with some results ahead:

EC50 [2] | EC50 [3] | SMILES | EC50 [1]
> 1 µM | > 1 µM | CCCCc1nc2c(N)nc3ccsc3c2n1Cc1ccccc1CN1CCN(CCN2CCOCC2)CC1 [Compound 222, 2-butyl-1-(2-((4-(2-morpholinoethyl)piperazin-1-yl)methyl)benzyl)-1H-imidazo[4,5-d]thieno[3,2-b]pyridin-4-amine] | > 1 µM
> 1 µM | > 1 µM | CCCCc1nc2c(N)nc3ccsc3c2n1Cc1ccccc1CNCCCCCO [Compound 223] | > 1 µM
> 1 µM | > 1 µM | CCCCc1nc2c(N)nc3ccsc3c2n1Cc1ccccc1CNCc1ccc(CO)cc1 [Compound 224, (4-(((2-((4-amino-2-butyl-1H-imidazo[4,5-d]thieno[3,2-b]pyridin-1-yl)methyl)benzyl)amino)methyl)phenyl)methanol] | > 1 µM
0.58 µM | 0.11 µM | CCCCc1nc2c(N)nc3ccsc3c2n1Cc1nc(CNCc2cc[nH]c2)cs1 [Compound 231, 1-((4-((((1H-pyrrol-3-yl)methyl)amino)methyl)thiazol-2-yl)methyl)-2-butyl-1H-imidazo[4,5-d]thieno[3,2-b]pyridin-4-amine] | 0.92 µM
0.88 µM | 0.14 µM | CCCCc1nc2c(N)nc3ccsc3c2n1Cc1nc(CN(CC)CC)cs1 [Compound 233, 2-butyl-1-((4-((diethylamino)methyl)thiazol-2-yl)methyl)-1H-imidazo[4,5-d]thieno[3,2-b]pyridin-4-amine] | 0.63 µM
